Patent US20200399329A1, “ANTIMICROBIAL PEPTIDES” (priority 2015, published 2020)
In brackets after ≈: the same amount, converted by molar mass. Entries after “also recorded” stand apart in the source; their conditions may differ. Where a SMILES comes first, the peptide text is derived from it.

How the values were obtained:
GFPuv E. coli = experiment: GFP leakage from lysed GFPuv E. coli; assay type: cell-based; conditions: 50 μM for 30 minutes
Experimental: In order to determine and evaluate the Mechanism of Action (MOA) by which the peptides achieve the remarkable antimicrobial effect they exert, the following experiments were conducted: GFPuv E. coli bacteria are a strain that upon induction expresses green fluorescent protein (GFP). The GFP fluorescence can be detected at 395/509 nm, while live bacteria can be detected via absorbance at 600 nm (OD600).
GFPuv E. coli bacteria ubiquitously express GFP in their cytoplasm upon induction and the fluorescent protein can be detected and visualized. […]
In another experiment, bacteria were grown and induced to express GFP. […] The supernatant (sup) from the two experiment groups CTRL and OMN6, was separated from the pellet and analyzed for the level of fluorescence units (FU) (see FIG. 4B). […] Fluorescence was detected only inside the bacteria which were concentrated in the pellet at the bottom of the tube. […] Both supernatants were probed for the presence of bacteria via absorbance at 600 nm and both supernatants were completely void of bacteria cells (data not shown). […] Thus, in the CTRL group, where the bacteria are intact, no fluorescence is detected in the sup while in the sup from the group treated with OMN6, the GFP that leaked out of the lysed cells is detected.

[1] = tested on: human primary erythrocytes; experiment: Hemolysis, cell count and MCV of human primary erythrocytes; assay type: cell-based
Experimental: Since the peptides of the invention are intended inter-alia to operate in wounds or other damaged tissue, a direct contact with patients' blood may occur. Accordingly, an experiment was conducted in order to assess whether OMN6 has cytotoxic effects on human primary erythrocytes. These cells lack any defense mechanism to protect them against damage to the plasma membrane and therefor are a standard model for evaluating cytotoxic effects on eukaryotic cells. The parameter that was measured was the ability of OMN6 to cause hemolysis, red blood cells death, in human erythrocytes. The experiments were performed on human blood samples using ABX PENTRA DF120 machine routinely used by hospital personnel to conduct such tests.
The Mean Corpuscular Volume (MCV) of the erythrocytes is a well-accepted indication of the cells' health and membrane integrity. The experiment was conducted to assess whether OMN6, which forms pores in bacterial membranes, has the ability to damage human cells plasma-membrane. […] (Table 5).
Table 4 and Table 5: hemolysis and Mean Corpuscular Values (MCV) of human primary erythrocytes were evaluated after treatment with OMN6.

E. coli ESBL BAA-198 = assay type: cell-based, Escherichia coli
Experimental: (§1) In order to determine the MIC values of the peptides, growth and inhibition of various bacteria were monitored after treatment with the peptides of the invention (Table 6).
(§2) E. coli bacteria were cultured with or without OMN6 in increasing concentrations of 0.8-200 μM and with or without Fetal Bovine Serum 10% for 17-20 hours. The growth of the bacteria was continuously monitored via spectrophotometry at 600 nm. As bacterial growth progresses, OD600 nm values rise, and where the growth is inhibited OD600 nm values remain constant.
(§3) The experimental system and parameters described here were used to determine the MIC values of OMN2, OMN6, OMN7 and OMN11 on various bacteria strains (Table 7 and Table 8).

E. coli Sens. 25922 = assay type: cell-based, Escherichia coli
Experimental: as §1, §2, §3

E. coli CR BAA-2452 = assay type: cell-based, Escherichia coli; conditions: OMN6 12.5 μM, FIG. 6D
Experimental: as §1, §2
E. coli NDM1 is a Carbapenem resistant strain of bacteria. The experimental system described above was used to determine the antimicrobial effect of OMN6 on this bacteria compared to the antibiotic drug Imipenem (IPM), a member of the Carbapenem family of antibiotics. The MIC value for IPM on sensitive E. coli is 4 μg/ml, in a MIC above 8 μg/ml the bacteria is considered resistant.
as §3

For CC[C@H](C)[C@H](NC(=O)CNC(=O)[C@H](CC(=O)O)NC(=O)[C@H](CCCNC(=N)N)NC(=O)[C@@H](NC(=O)[C@H](CC(N)=O)NC(=O)[C@H](CCC(N)=O)NC(=O)CNC(=O)[C@@H](NC(=O)[C@H](CCCCN)NC(=O)[C@H](CCC(=O)O)NC(=O)[C@@H](NC(=O)[C@H](CCCCN)NC(=O)[C@H](CCCCN)NC(=O)[C@H](Cc1ccccc1)NC(=O)[C@H](CC(C)C)NC(=O)[C@H](CCCCN)NC(=O)[C@H](Cc1c[nH]c2ccccc12)NC(=O)[C@H](CCCCN)NC(=O)[C@H](CS)NC(=O)[C@@H](N)CCSC)[C@@H](C)CC)C(C)C)[C@@H](C)CC)C(=O)N[C@H](C(=O)N[C@@H](CCCCN)C(=O)N[C@@H](C)C(=O)NCC(=O)N1CCC[C@H]1C(=O)N[C@@H](C)C(=O)N[C@H](C(=O)N[C@@H](C)C(=O)N[C@H](C(=O)N[C@H](C(=O)NCC(=O)N[C@@H](CCC(N)=O)C(=O)N[C@@H](C)C(=O)N[C@H](C(=O)N[C@@H](CCC(N)=O)C(=O)N[C@H](C(=O)N[C@@H](C)C(=O)N[C@@H](CCCCN)C(=O)N[C@@H](CS)C(N)=O)[C@@H](C)CC)[C@@H](C)O)C(C)C)C(C)C)C(C)C)[C@@H](C)CC [OMN6] (H-MCKWKLFKKIEKVGQNIRDGIIKAGPAVAVVGQATQIAKC-NH2; N-terminus and C-terminus assumed), the “GFP leakage / lysis of bacteria” value (GFPuv E. coli) was “massive leaking of GFP; also recorded: extensive lysis”, the “Erythrocytes Mean Corpuscular Volume (MCV)” value ([1]; OMN6 10 μM, 30 min) was 64 and the “Number of live erythrocytes” value ([1]; OMN6 10 μM, 30 min) was 1.69 cells*10^6/ml. For the same molecule, the “Erythrocytes Mean Corpuscular Volume (MCV)” value ([1]; OMN6 10 μM, 60 min) was 64, the “Number of live erythrocytes” value ([1]; OMN6 10 μM, 60 min) was 1.66 cells*10^6/ml and the “Erythrocytes Mean Corpuscular Volume (MCV)” value ([1]; OMN6 10 μM, 120 min) was 63. The “Number of live erythrocytes” value ([1]; OMN6 10 μM, 120 min) was 1.68 cells*10^6/ml, the “Erythrocytes Mean Corpuscular Volume (MCV)” value ([1]; OMN6 10 μM, 180 min) was 64 and the “Number of live erythrocytes” value ([1]; OMN6 10 μM, 180 min) was 1.67 cells*10^6/ml. The “Erythrocytes Mean Corpuscular Volume (MCV)” value ([1]; OMN6 20 μM, 30 min) was 64, the “Number of live erythrocytes” value ([1]; OMN6 20 μM, 30 min) was 1.65 cells*10^6/ml and the “Erythrocytes Mean Corpuscular Volume (MCV)” value ([1]; OMN6 20 μM, 60 min) was 64. The “Number of live erythrocytes” value ([1]; OMN6 20 μM, 60 min) was 1.70 cells*10^6/ml, the “Erythrocytes Mean Corpuscular Volume (MCV)” value ([1]; OMN6 20 μM, 120 min) was 63 and the “Number of live erythrocytes” value ([1]; OMN6 20 μM, 120 min) was 1.71 cells*10^6/ml. The “Erythrocytes Mean Corpuscular Volume (MCV)” value ([1]; OMN6 20 μM, 180 min) was 64, the “Number of live erythrocytes” value ([1]; OMN6 20 μM, 180 min) was 1.70 cells*10^6/ml and the “Erythrocytes Mean Corpuscular Volume (MCV)” value ([1]; OMN6 40 μM, 30 min) was 64. For the same molecule, the “Number of live erythrocytes” value ([1]; OMN6 40 μM, 30 min) was 1.60 cells*10^6/ml, the “Erythrocytes Mean Corpuscular Volume (MCV)” value ([1]; OMN6 40 μM, 60 min) was 64 and the “Number of live erythrocytes” value ([1]; OMN6 40 μM, 60 min) was 1.80 cells*10^6/ml. For the same molecule, the “Erythrocytes Mean Corpuscular Volume (MCV)” value ([1]; OMN6 40 μM, 120 min) was 63, the “Number of live erythrocytes” value ([1]; OMN6 40 μM, 120 min) was 1.77 cells*10^6/ml and the “Erythrocytes Mean Corpuscular Volume (MCV)” value ([1]; OMN6 40 μM, 180 min) was 64. The “Number of live erythrocytes” value ([1]; OMN6 40 μM, 180 min) was 1.76 cells*10^6/ml, the “Hemolysis of human erythrocytes” value ([1]; human blood samples) was “hemolysis of cells did not occur” and the MIC (E. coli ESBL BAA-198) was 5 µM (≈ 21.7 µg/mL). The MIC value (E. coli Sens. 25922; Sens. 25922) was 6.25 µM (≈ 27.1 µg/mL), the “Minimal Inhibitory Conc. (MIC)” value (E. coli Sens. 25922; Sens. 25922, 17 h) was 12.5 µM and the “Inhibition of growth of E. coli NDM1” value (E. coli CR BAA-2452) was “completely inhibited bacterial growth”.
